Experimental data published in US9999611B2, “SIRT 1 activator including syringaresinol” (AMOREPACIFIC CORPORATION, priority 2011, dated 2018).

Columns and labels:
[1] = system: ADD1/SREBP1c, ACC, FAS; experiment: Expression of fatty acid synthesis-related genes (qRT-PCR); assay type: cell-based, human; conditions: 50 μM, vs DMSO control
Protocol: Human adipocytes, hepatocytes and myocytes were treated with 50 μM syringaresinol and washed with PBS in substantially the same manner as in Test Example 3. RNA was extracted from the cells and cDNA was synthesized therefrom. The change in expression pattern of fatty acid synthesis-related genes such as ADD1/SREBP1c, ACC, FAS, etc. and fatty acid oxidation-related genes such as ACO, CPT1, mCAD, etc. was measured by qRT-PCR.

[2] = system: human PBMCs; experiment: Human PBMC migration and deposition onto 3T3-L1 adipocytes (TNF-induced); assay type: cell-based; conditions: human PBMCs, 20, 50 or 100 μM, 10 ng/mL TNF, differentiated 3T3-L1 adipocytes, 48 hours; FIG. 20
Protocol: After treating human PBMCs with 20, 50 or 100 μM syringaresinol or DMSO in substantially the same manner as in Test Example 11, inflammatory response was induced by treating with 10 ng/mL TNF. After treating differentiated 3T3-L1 adipocytes (Zen-Bio) with the PBMCs, it was investigated whether the PBMCs migrate onto the adipocytes and deposit. 48 hours later, after removing the PBMCs remaining without migrating, the cells were detached from a culture dish using trypsin/EDTA and then counted using a cell counter.

[3] = system: aged retinal cells (ARPE-19); experiment: Mitochondrial function recovering effect in aged retinal cells: energy (ATP) production; assay type: cell-based, human; conditions: compared to cells treated only with DMSO, FIG. 16
Protocol: The aging of retinal cells was induced while treating with 50 or 100 μM syringaresinol or with DMSO as a negative control, in substantially the same manner as in Test Example 7. For evaluation of mitochondrial function recovering effect, the level of energy (ATP) and reactive oxygen species production in retinal cells was investigated. The energy production was determined by recovering the aged cells after washing with PBS and then with hot water and measuring luminescence using the ATP determination kit (Molecular Probes, Eugene, Oreg., USA) and the Tecan system (Infinite M200, Tecan, Austria). The reactive oxygen species production was measured using a flow cytometer (BD Biosciences, San Jose, Calif., USA) after washing the aged cells with PBS and staining them with the reactive oxygen species detection reagent (H2DCFDA, Invitrogen, Carlsbad, Calif., USA).

[4] = system: IL-1b, IL-6. iNOS, COX2, MMP9 and CCR2; experiment: Inhibition of expression of inflammation-related genes in LPS-treated human PBMCs; assay type: cell-based; conditions: human PBMCs pretreated with 50 μM, then 10 ng/mL LPS; compared to cells treated only with LPS; FIG. 19
Protocol: After pretreating human PBMCs with 50 μM syringaresinol, inflammatory response was induced by treating with 10 ng/mL LPS, in substantially the same manner as in Test Example 11. The cells treated with each sample were washed with PBS and RNA and cDNA were extracted and synthesized therefrom. Then, the expression pattern of the inflammatory response-related genes IL-1b, IL-6. iNOS, COX2, MMP9 and CCR2 was monitored using the synthesized cDNA and predesigned primers.

[5] = system: Human myocytes; experiment: Fatty acid oxidation promoting ability (3H2O in medium), myocytes; assay type: cell-based; conditions: 50 μM, vs non-treated group, FIG. 11
Protocol: (§1) Human adipocytes, hepatocytes and myocytes were treated with 50 μM syringaresinol in substantially the same manner as in Test Example 3. The cells were washed with PBS and cultured for a day in a medium for fatty acid oxidation analysis. The medium was recovered and the amount of ^3H2O was measured.

[6] = system: Human adipocytes; experiment: Fatty acid oxidation promoting ability (3H2O in medium), adipocytes; assay type: cell-based; conditions: 50 μM, vs non-treated group, FIG. 11
Protocol: as §1

[7] = system: human PBMCs; experiment: Reactive oxygen species production inhibiting effect in LPS-treated human PBMCs (H2-DCFDA); assay type: cell-based; conditions: human PBMCs pretreated with 20, 50 or 100 μM, then 10 ng/mL LPS; compared to cells treated only with LPS; FIG. 18
Protocol: After pretreating human PBMCs with 20, 50 or 100 μM syringaresinol in substantially the same manner as in Test Example 10, followed by washing with PBS, inflammatory response was induced by treating with 10 ng/mL lipopolysaccharide (LPS). After treating the cells with H2-DCFDA (Invitrogen), which is a fluorescent substance capable of detecting reactive oxygen species, the amount of fluorescent substance was measured using a multiplate reader (Infinite M200; Tecan, Mannedorf, Switzerland).

[8] = system: aged retinal cells (ARPE-19); experiment: Mitochondrial biosynthesis promoting effect in aged retinal cells (mitochondrial DNA relative to nuclear DNA, real-time PCR); assay type: cell-based, human; conditions: vs DMSO, FIG. 15
Protocol: The aging of retinal cells was induced while treating with 50 or 100 μM syringaresinol or with DMSO as a negative control, in substantially the same manner as in Test Example 7. The cells treated with each sample were washed 2 times with cold PBS and genomic DNA (gDNA) was extracted therefrom using the FastPure DNA kit (Tokyo, Japan). For evaluation of mitochondrial biosynthesis, the quantity of the mitochondrial DNA marker cytochrome oxidase subunit II and the nuclear DNA marker cyclophilin A was quantified through real-time PCR using the extracted gDNA and the number of mitochondria was measured by calculating the quantity of mitochondrial DNA relative to the nuclear DNA. PCR reaction and analysis were carried out using the Rotor-Gene 3000 system (Corbett Research, Sydney, Australia).

[9] = system: SIRT1; experiment: SIRT1 expression promoting effect in adipocytes, hepatocytes and myocytes (qRT-PCR); assay type: cell-based, human; conditions: 24 hours, FIG. 4
Protocol: The SIRT1 gene expression promoting effect of syringaresinol in human adipocytes, hepatocytes and myocytes was evaluated as follows.
Human adipocytes, hepatocytes and myocytes were purchased from Zen-Bio (Research Triangle Park, N.C., USA) and cultured in a 5% CO2 incubator using respectively an adipocyte medium (OM-AM, Zen-Bio), a hepatocyte medium (HM-2, Zen-Bio) and a myocyte medium (SKM-D, SKM-M, Zen-Bio). The cells were treated with syringaresinol dissolved in DMSO to a concentration of 20, 50 or 100 μM for 24 hours. A negative control group was treated with DMSO corresponding to 1/1000 of the volume of the culture medium.
The cells treated with each sample were washed 2 times with cold PBS and RNA was extracted therefrom using the TRIzol reagent (Invitrogen). Then, cDNA was synthesized from the extracted RNA ([…]) using a reverse transcription system (Fermentas, Glen Burnie, Md., USA). The expression pattern of the SIRT1 and GAPDH genes was monitored by qRT-PCR using the synthesized cDNA and predesigned primers and probes. PCR reaction and analysis were carried out using the Rotor-Gene 3000 system (Corbett Research, Sydney, Australia).

[10] = system: Human hepatocytes; experiment: Fatty acid oxidation promoting ability (3H2O in medium), hepatocytes; assay type: cell-based; conditions: 50 μM, vs non-treated group, FIG. 11
Protocol: as §1

SMILES: COc1cc(C2OCC3C(c4cc(OC)c(O)c(OC)c4)OCC23)cc(OC)c1O (stereo not shown) [syringaresinol]
- expression of fatty acid synthesis-inducing genes ([1]; human adipocytes, FIG. 5): suppressed the expression of fatty acid synthesis-inducing genes
- expression of fatty acid synthesis-inducing genes ([1]; human hepatocytes, FIG. 6): suppressed the expression of fatty acid synthesis-inducing genes
- expression of fatty acid synthesis-inducing genes ([1]; human myocytes, FIG. 7): suppressed the expression of fatty acid synthesis-inducing genes
- inhibition of migration and deposition of PBMCs onto adipocytes [2]: about 50%
- increased energy (ATP) production ([3]; 50 μM): about 21%
- increased energy (ATP) production ([3]; 100 μM): ~33%
- decreased expression of the inflammatory response-related genes [4]: about 90%
- fatty acid oxidation [5]: increased fatty acid oxidation
- fatty acid oxidation [6]: increased fatty acid oxidation
- decreased reactive oxygen species production [7]: about 60%
- increase in mitochondrial biosynthesis (mitochondrial DNA relative to nuclear DNA) ([8]; 50 μM): about 40%
- increase in mitochondrial biosynthesis (mitochondrial DNA relative to nuclear DNA) ([8]; 100 μM): ~60%
- SIRT1 expression ([9]; human adipocytes, 20, 50 or 100 μM): increased SIRT1 expression
- SIRT1 expression ([9]; human hepatocytes, 20, 50 or 100 μM): increased SIRT1 expression
- SIRT1 expression ([9]; human myocytes, 20, 50 or 100 μM): increased SIRT1 expression
- fatty acid oxidation [10]: increased fatty acid oxidation
